Measurements reported in publication PMC11359809, “Probing the molecular basis for signal transduction through the Zinc-Activated Channel (ZAC)” (Biochemical pharmacology, 2021).

Assays:
m5-HT3A/ZAC = target: T1, m5-HT3A/ZAC (Mus musculus / Homo sapiens, UniProt P23979); test: TEVC in oocytes expressing m5-HT3A/ZAC chimera; assay type: cell-based
T1 sequence (P23979 24-246): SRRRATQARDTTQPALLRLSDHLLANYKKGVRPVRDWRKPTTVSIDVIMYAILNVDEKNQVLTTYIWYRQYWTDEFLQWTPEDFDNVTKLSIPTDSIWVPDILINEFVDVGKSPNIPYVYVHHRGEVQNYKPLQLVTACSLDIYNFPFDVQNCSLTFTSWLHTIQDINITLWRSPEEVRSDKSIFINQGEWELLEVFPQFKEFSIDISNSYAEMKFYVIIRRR
T1 sequence (Q401N2 231-412 partner): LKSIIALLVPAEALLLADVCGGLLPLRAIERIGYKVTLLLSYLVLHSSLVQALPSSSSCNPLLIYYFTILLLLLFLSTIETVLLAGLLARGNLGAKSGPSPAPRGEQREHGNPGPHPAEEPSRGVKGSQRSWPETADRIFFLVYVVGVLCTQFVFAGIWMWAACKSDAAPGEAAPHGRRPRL
Text: The construction of the ZAC-pUNIV plasmid (encoding for the human WT ZAC that contains a Thr in position 128) has been described previously. The m5-HT3A and hα1 GlyR cDNAs were subcloned from their original vectors into pUNIV (Addgene, Watertown, MA) using NheI and EcoRI as restriction enzymes. […] The C-terminus modifications in these four chimeras were introduced in their cDNAs in the same way. Point mutations were introduced in cDNAs by use of the QuikChange mutagenesis kit (Stratagene, San Diego, CA). The validity and absence of unwanted mutations in the constructed cDNAs was verified by DNA sequencing (Macrogen Europe, Amsterdam, The Netherlands).
All cDNAs used for cRNA synthesis were inserted in the pUNIV vector. The cDNAs were linearized and subsequently transcribed and capped using the mMessage mMachine T7 RNA transcription kit (Ambion, Waltham, MA). […] Oocytes were incubated in a sterile modified Barth’s solution [88 mM NaCl, 1 mM KCl, 15 mM HEPES (pH 7.5), 2.4 mM NaHCO3, 0.41 mM CaCl2, 0.82 mM MgSO4, 0.3 mM Ca(NO3)2, 100 U/ml penicillin and 100 μg/ml streptomycin] at 16–18 °C. Based on experience gained with WT ZAC in a recent study, all TEVC recordings were performed two days after cRNA injection.
On the day of the TEVC recording, all compound dilutions were prepared in a saline solution [115 mM NaCl, 2.5 mM KCl, 10 mM MOPS (pH 7.5), 1.8 mM CaCl2, 0.1 mM MgCl2], and pH was adjusted to 7.5 (if needed). Oocytes were placed in a recording chamber continuously perfused with this saline solution, and the compounds were applied in the perfusate. Both voltage and current electrodes were agar-plugged with 3 M KCl with a resistance of 0.2–2.0 MΩ. Oocytes were voltage-clamped at −50 mV (except in the studies of the chimeras and their parent receptors where they were clamped at −60 mV, section 3.1), by a Gene Clamp 500B amplifier, and current signals were digitized by a Digidata 1322A (both from Axon Instruments, Union City, CA). Currents were recorded using pCLAMP 10 (Molecular Devices, Sunnyvale, CA). The recordings were performed at room temperature.
In all recordings, compounds or compound combinations were applied in the bath until the peak current decayed to a steady state (up to 30 s). […] The antagonist properties of compounds were determined by pre-application of the compound to the perfusate for 30 s followed by co-application of the compound and the agonist. In all recordings, washes of 1–5 min were executed between the ligand applications, the length of the washes depending on the agonist concentrations used and on the return to baseline current amplitude.
(§1) Analysis of the data from the TEVC recordings were performed using Clampfit software version 10.5 (Molecular Devices, Crawley, UK) and GraphPad Prism version 7.0c (GraphPad Software, La Jolla, CA). Unless otherwise stated, the inward currents induced by agonists in oocytes were normalized to the maximal response elicited by a specific agonist (agonist Imax) on each oocyte. Concentration-response and concentration-inhibition curves were fitted in GraphPad Prism by nonlinear regression using the equation for sigmoidal dose-response with variable slope. Each data point represents the mean ± S.E.M. value of recordings performed on at least five oocytes in total from at least two different batches. For the data where statistical analysis was performed, a one-way ANOVA was used. The null hypothesis was rejected at P < 0.05, and the differences between the means were analyzed by Tukey’s multiple comparisons test.

ZAC/m5-HT3A = test: TEVC in oocytes expressing ZAC/m5-HT3A chimera; assay type: cell-based, mouse/human; conditions: 10 mM Zn^2+; n = 5
Experimental: (§2) The recordings were performed at room temperature.
as §1
(§3) Initially, we constructed four chimeric subunits fusing the ZAC ECD or TMD-ICD with the complementary domains from either the m5-HT3A or the hα1 GlyR subunit: ZAC/m5-HT3A, m5-HT3A/ZAC, ZAC/hα1-Gly and hα1-Gly/ZAC (Fig. 1A). […] (Fig. 1A).

ZAC^L9′I = target: T2, ZAC^L9′I (Homo sapiens, UniProt Q401N2, A152T/L270I); test: TEVC in oocytes, ZAC L9′I mutant; assay type: cell-based; conditions: agonist; n = 8
T2 construct: expressed in transfected cells; host or cells: Xenopus oocytes (cRNA injection, pUNIV vector)
T2 sequence (Q401N2 26-412 A152T/L270I): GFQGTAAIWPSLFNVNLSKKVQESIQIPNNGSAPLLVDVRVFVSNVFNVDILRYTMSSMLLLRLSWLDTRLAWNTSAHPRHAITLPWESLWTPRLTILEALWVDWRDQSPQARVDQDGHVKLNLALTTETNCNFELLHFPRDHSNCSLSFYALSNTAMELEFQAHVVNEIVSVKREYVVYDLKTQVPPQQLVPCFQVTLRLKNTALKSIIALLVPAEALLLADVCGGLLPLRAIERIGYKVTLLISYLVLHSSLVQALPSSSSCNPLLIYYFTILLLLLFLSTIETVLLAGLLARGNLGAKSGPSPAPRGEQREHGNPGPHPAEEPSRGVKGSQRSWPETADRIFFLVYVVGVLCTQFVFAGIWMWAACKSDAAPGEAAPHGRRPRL
Experimental: as §2, §1

ZAC/hα1-Gly = test: TEVC in oocytes expressing ZAC/hα1-Gly chimera; assay type: cell-based, human
Experimental: as §2, §1, §3

[1] = sustained (4 min) application of 30 μM Zn^2+

[Cl-].[Cl-].[Zn+2] [Zn^2+, ZnCl2]
I10 mM Zn2+ ± S.E.M. (m5-HT3A/ZAC; 10 mM Zn^2+, n = 4): 0.0037 ± 0.0013 μA
modulation of 5-HT (EC80)-evoked currents (m5-HT3A/ZAC; 5-HT 1 μM): monophasic concentration-inhibition relationship
I10 mM Zn2+ ± S.E.M. (ZAC/m5-HT3A): −0.0038 ± 0.0009 μA
EC50 (ZAC^L9′I): 24 µM
nH ± S.E.M. (Hill slope) (ZAC^L9′I): 0.8 ± 0.2
pEC50 ± S.E.M. (ZAC^L9′I): 4.62 ± 0.15
Imax (current amplitude evoked by saturating agonist) (ZAC/hα1-Gly; 30 μM Zn^2+, n = 11): 0.24 ± 0.03 μA
nH ± S.E.M. (Hill slope) (ZAC/hα1-Gly; agonist, n = 10): 1.6 ± 0.4
pEC50 ± S.E.M. (ZAC/hα1-Gly; agonist, n = 10): 5.36 ± 0.09
left-shift of concentration-response relationship (higher agonist potency) (ZAC/hα1-Gly; compared to WT ZAC): ~100 fold
Iresidual, 4 min (ZAC/hα1-Gly; [1]): 63 ± 6 % of Ipeak
Δtpeak-to-plateau (ZAC/hα1-Gly; [1]): 56 ± 3.8 s
Δtstart-to-peak (ZAC/hα1-Gly; [1]): 10 ± 1.9 s
